# Target: NMDA receptor (GRIN1/GRIN2A) (Homo sapiens, UniProt Q05586+Q12879)
# Test: NMDA potentiation, two electrode voltage clamp (TEVC) of Xenopus oocytes expressing NMDA receptor
# Assay type: cell-based
# Settings: 10 μM compound, 3 μM Glutamate and Glycine
# Description: NMDA potentiation was assessed using either whole cell patch clamp of mammalian cells which expressed NMDA receptors, or using two-electrode voltage clamp (TEVC) of Xenopus Laevis oocytes expressing NMDA receptors.
# The Two Electrode Voltage Clamp (TEVC) technique was used to investigate the effects of compounds (10 μM) on the NMDA receptor (GRIN1/GRIN2A) expressed in Xenopus oocytes. Glutamate/Glycine peak and steady-state currents were recorded from oocytes that expressed the NMDA receptor and the modulatory effects of the test items on these currents were investigated.
# Ovaries were harvested from Xenopus Laevis females that had been deeply anesthetized by cooling at 4° C. and immersion in Tricaine methanesulfonate (MS-222 at a concentration of 150 mg/L) in sodium bicarbonate (300 mg/L). Once anesthetized the animal was decapitated and pithed following the rules of animal rights from the Geneva canton. A small piece of ovary was isolated for immediate preparation while the remaining part was placed at 4° C. in a sterile Barth solution containing in mM NaCl 88, KCl 1, NaHCO3 2.4, HEPES 10, MgSO4·7H2O 0.82, Ca(NO3)2·4H2O 0.33, CaCl2·6H2O 0.41, at pH 7.4, and supplemented with 20 μg/ml of kanamycin, 100 unit/ml penicillin and 100 μg/ml streptomycin. All recordings were performed at 18° C. and cells were super-fused with medium containing in mM: NaCl 82.5, KCl 2.5, HEPES 5, CaCl2·2H2O, ·6H2O 1, pH 7.4.
# Oocytes were injected with either cDNAs encoding for the human GRIN1 and GRIN2A subunits, using a proprietary automated injection device (Hogg et al., J. Neurosci. Methods, (2008) 169: 65-75) and receptor expression was assessed using electrophysiology at least two days later. The ratio of cDNA injection for GRIN1 and GRIN2A was 1:1. Electrophysiological recordings were made using an automated process equipped with standard TEVC and data were captured and analyzed using a proprietary data acquisition and analysis software running under Matlab (Mathworks Inc.). The membrane potential of the oocytes was maintained at −80 mV throughout the experiments. To explore the effects of proprietary compounds, currents were evoked by applying 3 μM Glutamate and […] Glycine for 10 s. Oocytes were then washed for 90 s before being exposed to the test article at a concentration of 10 μM for 120 s. Following this, 3 μM Glutamate and […] Glycine were immediately reapplied for 10 s. Potentiation of both the peak current and the steady state current was assessed. For statistical analysis values were computed either with Excel (Microsoft) or Matlab (Mathworks Inc.). To obtain mean measurements with standard deviations, all experiments were carried out using at least three cells.
# Glutamate was prepared as a concentrated stock solution ([…]) in water and then diluted in the recording medium to obtain the desired test concentration. Glycine was prepared as a stock solution at 1 M in water. Compounds were prepared as stock solution ([…]) in DMSO and then diluted in the recording medium to obtain the desired test concentration.
# NMDA receptor (GRIN1/GRIN2A), sequence (Q12879 23-1464, other chains not shown): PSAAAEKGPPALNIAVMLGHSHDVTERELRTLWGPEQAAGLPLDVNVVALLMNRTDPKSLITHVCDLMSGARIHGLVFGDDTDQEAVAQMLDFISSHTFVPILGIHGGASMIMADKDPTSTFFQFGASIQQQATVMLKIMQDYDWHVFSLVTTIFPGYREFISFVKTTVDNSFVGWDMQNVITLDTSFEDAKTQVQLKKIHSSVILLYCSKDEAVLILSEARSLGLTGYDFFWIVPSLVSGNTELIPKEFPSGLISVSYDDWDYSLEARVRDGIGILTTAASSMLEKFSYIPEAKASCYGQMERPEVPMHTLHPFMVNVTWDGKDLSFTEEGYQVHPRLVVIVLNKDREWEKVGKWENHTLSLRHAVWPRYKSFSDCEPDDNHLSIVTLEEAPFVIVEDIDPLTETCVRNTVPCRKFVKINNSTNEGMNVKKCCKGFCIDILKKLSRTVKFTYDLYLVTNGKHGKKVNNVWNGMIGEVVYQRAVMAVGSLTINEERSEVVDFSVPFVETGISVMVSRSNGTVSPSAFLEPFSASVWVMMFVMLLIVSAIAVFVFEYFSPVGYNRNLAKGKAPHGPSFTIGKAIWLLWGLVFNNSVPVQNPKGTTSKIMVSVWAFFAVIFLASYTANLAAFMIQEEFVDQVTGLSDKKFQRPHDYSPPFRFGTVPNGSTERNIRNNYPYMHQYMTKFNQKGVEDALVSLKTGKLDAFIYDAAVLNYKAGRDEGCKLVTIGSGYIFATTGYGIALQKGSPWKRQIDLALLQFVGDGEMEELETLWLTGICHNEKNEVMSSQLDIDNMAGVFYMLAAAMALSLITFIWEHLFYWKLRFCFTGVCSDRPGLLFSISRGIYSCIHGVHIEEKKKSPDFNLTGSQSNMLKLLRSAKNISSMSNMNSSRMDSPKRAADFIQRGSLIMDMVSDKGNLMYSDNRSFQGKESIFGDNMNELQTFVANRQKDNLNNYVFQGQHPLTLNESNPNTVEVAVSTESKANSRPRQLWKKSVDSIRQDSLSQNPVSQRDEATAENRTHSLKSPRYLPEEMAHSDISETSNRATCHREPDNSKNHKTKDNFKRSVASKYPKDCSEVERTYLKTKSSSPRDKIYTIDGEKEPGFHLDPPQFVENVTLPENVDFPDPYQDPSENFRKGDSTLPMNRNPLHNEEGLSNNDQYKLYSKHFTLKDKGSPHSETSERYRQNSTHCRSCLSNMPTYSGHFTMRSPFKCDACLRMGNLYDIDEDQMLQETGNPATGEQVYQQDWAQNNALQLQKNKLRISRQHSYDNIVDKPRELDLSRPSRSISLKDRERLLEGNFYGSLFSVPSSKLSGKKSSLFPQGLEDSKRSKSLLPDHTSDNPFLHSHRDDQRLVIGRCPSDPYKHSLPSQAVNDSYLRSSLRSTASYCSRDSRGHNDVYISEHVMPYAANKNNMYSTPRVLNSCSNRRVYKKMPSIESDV
row,Structure (SMILES),activation at 10 µM [%]
1,C=CC[C@](C)(O)CC[C@@H](C)[C@H]1CC[C@H]2[C@@H]3CC[C@H]4C[C@@](C)(O)CC[C@]4(C)[C@H]3CC[C@]12C [Compound 6-11],10 to 50
2,C[C@H](CC(F)(F)[C@@H](C)O)[C@H]1CC[C@H]2[C@@H]3CC=C4C[C@@](C)(O)CC[C@]4(C)[C@H]3CC[C@]12C [Compound 11-16],10 to 50
3,COCC[C@@](C)(O)CC[C@@H](C)[C@H]1CC[C@H]2[C@@H]3CC=C4C[C@@](C)(O)CC[C@]4(C)[C@H]3CC[C@]12C [Compound 10-23],10 to 50
4,CC(C)[C@@](C)(O)CC[C@@H](C)[C@H]1CC[C@H]2[C@@H]3CC[C@H]4C[C@@](C)(O)CC[C@]4(C)[C@H]3CC[C@]12C [Compound 8-5],10 to 50
5,CC[C@]1(O)CC[C@@]2(C)C(=CC[C@H]3[C@@H]4CC[C@H]([C@H](C)CCC(O)C(F)(F)F)[C@@]4(C)CC[C@@H]32)C1 (some centres unmarked) [Compound 2-4],> 100
6,CC[C@@](C)(O)CC[C@@H](C)[C@H]1CC[C@H]2[C@@H]3CC[C@H]4C[C@@](C)(O)CC[C@]4(C)[C@H]3CC[C@]12C [Compound 4-9],10 to 50
7,CC[C@](C)(O)CC[C@@H](C)[C@H]1CC[C@H]2[C@@H]3CC[C@H]4C[C@@](C)(O)CC[C@]4(C)[C@H]3CC[C@]12C [Compound 4-10],10 to 50
8,C[C@H](CC[C@](C)(O)CCO)[C@H]1CC[C@H]2[C@@H]3CC[C@H]4C[C@@](C)(O)CC[C@]4(C)[C@H]3CC[C@]12C [Compound 10-18],50 to 100
9,CC[C@]1(O)CC[C@@]2(C)C(=CC[C@H]3[C@@H]4CC[C@H]([C@H](C)CC[C@@H](O)C(F)(F)F)[C@@]4(C)CC[C@@H]32)C1 [Compound 2-7],> 100
10,C[C@H](CC[C@@](C)(O)C1CC1)[C@H]1CC[C@H]2[C@@H]3CC[C@H]4C[C@@](C)(O)CC[C@]4(C)[C@H]3CC[C@]12C [Compound 9-7],10 to 50
11,CCCC[C@](C)(O)CC[C@@H](C)[C@H]1CC[C@H]2[C@@H]3CC[C@H]4C[C@@](C)(O)CC[C@]4(C)[C@H]3CC[C@]12C [Compound 7-6],> 100
12,C[C@H](CC[C@](C)(O)C(F)(F)F)[C@H]1CC[C@H]2[C@@H]3CC[C@H]4C[C@@](C)(O)CC[C@]4(C)[C@H]3CC[C@]12C [Compound 3-8],50 to 100
13,CC(C)[C@](C)(O)CC[C@@H](C)[C@H]1CC[C@H]2[C@@H]3CC[C@H]4C[C@@](C)(O)CC[C@]4(C)[C@H]3CC[C@]12C [Compound 8-6],10 to 50
14,C=CC(C)(O)CC[C@@H](C)[C@H]1CC[C@H]2[C@@H]3CC[C@H]4C[C@@](C)(O)CC[C@]4(C)[C@H]3CC[C@]12C (some centres unmarked) [Compound 10-7],50 to 100
15,C=C[C@](C)(O)CC[C@@H](C)[C@H]1CC[C@H]2[C@@H]3CC[C@H]4C[C@@](C)(O)CC[C@]4(C)[C@H]3CC[C@]12C [Compound 10-10],10 to 50
16,C[C@H](CCC(C)(O)CCCO)[C@H]1CC[C@H]2[C@@H]3CC=C4C[C@@](C)(O)CC[C@]4(C)[C@H]3CC[C@]12C (some centres unmarked) [Compound 6-3],50 to 100
17,CC(C)[C@@](C)(O)CC[C@@H](C)[C@H]1CC[C@H]2[C@@H]3CC=C4C[C@@](C)(O)CC[C@]4(C)[C@H]3CC[C@]12C [Compound 8-7],50 to 100
18,C#C[C@](C)(O)CC[C@@H](C)[C@H]1CC[C@H]2[C@@H]3CC[C@H]4C[C@@](C)(O)CC[C@]4(C)[C@H]3CC[C@]12C [Compound 10-8],50 to 100
19,C=CC[C@@](C)(O)CC[C@@H](C)[C@H]1CC[C@H]2[C@@H]3CC=C4C[C@@](C)(O)CC[C@]4(C)[C@H]3CC[C@]12C [Compound 6-8],10 to 50
20,CCC[C@](C)(O)CC[C@@H](C)[C@H]1CC[C@H]2[C@@H]3CC[C@H]4C[C@@](C)(O)CC[C@]4(C)[C@H]3CC[C@]12C [Compound 5-7],50 to 100
21,CC[C@]1(O)CC[C@@]2(C)[C@@H](CC[C@@H]3[C@@H]2CC[C@]2(C)[C@@H]([C@H](C)CC[C@H](O)C(F)(F)F)CC[C@@H]32)C1 [Compound 2-10],10 to 50
22,C[C@H](CC[C@@](C)(O)CCCO)[C@H]1CC[C@H]2[C@@H]3CC=C4C[C@@](C)(O)CC[C@]4(C)[C@H]3CC[C@]12C [Compound 6-9],10 to 50
23,C=CC(C)(O)CC[C@@H](C)[C@H]1CC[C@H]2[C@@H]3CC=C4C[C@@](C)(O)CC[C@]4(C)[C@H]3CC[C@]12C (some centres unmarked) [Compound 10-12],10 to 50

# — US12617814B2, “Neuroactive steroids and methods of use thereof” (Sage Therapeutics, LLC, priority 2013, dated 2026)
